Measured values taken from patent US20250073184A1, “CANNABIGEROQUINONE COMPOUNDS, COMPOSITIONS INCLUDING SUCH COMPOUNDS, AND USES OF SUCH COMPOUNDS AND COMPOSITIONS” (Juva Life, Inc., priority 2021, published 2025).
pEC50, pIC50: −log10 of the molar value.

Columns and labels:
[1] = system: HL-60 acute promyelocytic leukemia cell line; experiment: HL-60 cell line toxicity (Cell titer Glo viability); details: HL-60, 72 h
Procedure: The half maximal inhibition concentration (IC50) for each compound was determined by harvesting cells during the logarithmic growth period and then counting cell number using hemocytometer. […] Then, using a Biomek FX, test articles were serially diluted (10 mM top, 3× dilution intervals) along with a reference inhibitor (1 mM top, 3× dilution intervals) in acoustic grade Labcyte plate. Then, using an acoustic dispenser (Labcyte550), compounds were added as serially diluted to plate with cells: 90 nL of serially diluted compounds per well. 90 nL DMSO is added to control wells. Test plates were incubated for 72 h in the humidified incubator at 37° C. with 5% CO2. 25 μL of reconstituted Cell titer Glo reagent was added to each well. Each test plate was then incubated for 20 min at room temperature. Luminescence was then recorded using Synergy Neo2Multi-mode Reader.
In order to calculate intersect IC50, a dose-response curve was fitted using nonlinear regression model with a sigmoidal dose response.
The formula for calculating surviving rate is shown below, and the intersect IC50 was calculated according to the dose-response curve generated by the software:
The compounds of interest were assessed cell viability in the HL-60 acute promyelocytic leukemia cell line (ATCC® CCL-240). […] Culture medium were purchased from ATCC, USA.

[2] = target: T1, cannabinoid receptor 2 (CNR2) (Homo sapiens, UniProt P34972); experiment: CB2 receptor agonist assay (cAMP Hunter eXpress, CNR2 CHO-K1 cells); assay type: cell-based; details: agonist mode, Forskolin-stimulated cAMP, CNR2 CHO-K1 cells
T1 construct: host or cells: CHO-K1
Procedure: The assays were performed in cAMP Hunter eXpress cells engineered to overexpress naturally Gi/Go-coupled wildtype cannabinoid receptor 1 (CNR1) or cannabinoid receptor 2 (CNR2) in CHO-K1 cell type. In these cells, CB1 and/or […] agonists inhibit production of intracellular cAMP in response to stimulation with Forskolin. cAMP levels are determined using luminogenic detection reagents provided with the Hunter eXpress cAMP detection kit.
• Assay ready CNR1 CHO-K1 cells were obtained from Eurofins/Discover X, cat #95-0071E2 • Assay ready CNR2 CHO-K1 cells were obtained from Eurofins/Discover X, cat #95-0183E2 • Hunter eXpress cAMP detection kit was also from Discover X. The kit includes all cAMP detection reagents, Forskolin, complete cell plating medium and cell assay buffer.
The Assay-Ready CNR1 CHO-K1 or CNR2 CHO-K1 cells were thawed and re-suspended in pre-warmed Assay Complete plating medium and inoculated into 96 well plate at a density of 30,000 cells in 100 μL. The plates with cells were incubated for 24 h at 37° C. in 5% CO2. […] The cells were stimulated with the Forskolin/compound buffer for 30 min. After stimulation, 15 μL of cAMP antibody reagent and 60 μL of cAMP working detection solution were added to the cells and, the cells were incubated for 1 h at room temperature. After 1 h incubation, 60 μL of cAMP Solution A was added to the wells and the plate was incubated for 3 h at room temperature. The plate was read on Biotek Synergy Neo2 reader in luminescent mode. CB1 and CB2 agonists should reduce cAMP production in response to Forskilin. Relative luminescence units (RLUs) were plotted against compound concentration to determine apparent EC50 values of the agonist compounds.

T1 sequence (P34972 whole entry): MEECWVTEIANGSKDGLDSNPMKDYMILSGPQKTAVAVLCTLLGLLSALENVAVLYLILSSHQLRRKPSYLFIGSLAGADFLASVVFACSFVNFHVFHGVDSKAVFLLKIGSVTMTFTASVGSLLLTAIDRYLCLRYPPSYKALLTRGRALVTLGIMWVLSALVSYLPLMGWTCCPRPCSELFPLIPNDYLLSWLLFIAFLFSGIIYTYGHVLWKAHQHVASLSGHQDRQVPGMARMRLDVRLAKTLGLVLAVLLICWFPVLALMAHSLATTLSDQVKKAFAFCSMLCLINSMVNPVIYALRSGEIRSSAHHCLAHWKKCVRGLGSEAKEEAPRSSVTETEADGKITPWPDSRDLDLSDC

Cannabigerol Quinone [Formula VI]
higher tolerance of HL-60 cells to the compound than staurosporine [1]: more than 1,500 fold | Cell Viability (%) ([1]; 0.00017 uM): 102.3% | Cell Viability (%) ([1]; 0.00051 uM): 113.4% | Cell Viability (%) ([1]; 0.0015 uM): 91.6% | Cell Viability (%) ([1]; 0.0046 uM): 94.0% | Cell Viability (%) ([1]; 0.014 uM): 94.1% | Cell Viability (%) ([1]; 0.041 uM): 83.6% | Cell Viability (%) ([1]; 0.12 uM): 85.1% | Cell Viability (%) ([1]; 0.37 uM): 91.3% | Cell Viability (%) ([1]; 1.1 uM): 91.3% | Cell Viability (%) ([1]; 3.3 uM): 97.8% | Cell Viability (%) ([1]; 10 uM): 81.9% | Cell Viability (%) ([1]; 30 uM): 61.5% | pEC50 ([1]; read-out: EC50 (cell viability)): < 4.52 | pIC50 [2]: 6.92
